How the values were obtained:
Type in all cases: cell-based, mouse
AMPK = AMPK phosphorylation by Western blot in mHypoE-46; settings: 500 μM AICAR, 15 min, mHypoE-46, positive control
Description: mHypoE-46 cells were serum starved in 5.5 mM glucose (LG) DMEM for 1 hour prior to treatment with vehicle (0.1% DMSO), 100 µM BAP or H20, […] 5-Aminoimidazole-4-carboxamide ribonucleotide (AICAR) or 0 mM glucose DMEM. Protein was harvested using 1× cell lysis buffer (Cell Signaling Technologies, Inc, CST) containing protease and phosphatase inhibitors. A total of 30 μg protein was separated on a 12% SDS-polyacrylamide gels and transferred onto PVDF membranes. Membranes were blocked in 5% milk dissolved in Tris-buffered saline with Tween 20 (TBS-T) for 1 h and incubated with primary antibody overnight at 4° C. phospho-AMPKα (Thr172; cat. 2532S, CST), and total AMPKα (cat. 2535S, CST); phospho-p70-S6K (Thr389; cat. 9205S, CST) and total p70-S6K (cat. 9202S, CST); insulin receptor ß (cat. 3025S, CST); phospho-AKT (Ser473; cat. 9271S, CST) and total AKT (cat. 9272S, CST); phospho-ERK1/2 (Thr202/Tyr204; cat. 9101, CST) and total ERK (cat. 4695, CST) were diluted 1:1000 in 5% milk in TBS-T. Membranes were washed and incubated with secondary HRP-linked antirabbit antibody (1:7500 in 5% milk in TBS-T, CST) for 1 h, washed, and imaged using the Signal Fire ECL Reagent (CST) on the iBright 1500 Imaging System (Thermofisher). Protein density was quantified using ImageJ or the iBright Imaging System.

mHypoE-46 cell line = test: Gene expression by qRT-PCR in mHypoE-46 hypothalamic cell line; settings: for Npy expression: 16 hr
Description: (§1) Hypothalamic neurons from embryonic and adult mice were previously immortalized to generate the clonal cell lines mHypoE-46, mHypoE-44, mHypoE-41, mHypoE-38, mHypoA-59, a FAC-sorted POMC/GFP mouse-derived cell line, mHypoA-POMC/GFP-2, and a mixed culture mHypoA-Bmal1-WT/F cell line (6, 13, 14). The mHypoE-46, mHypoE-44, and mHypoA-Bmal1-WT/F lines were cultured in DMEM containing 1000 mg/L glucose supplemented with 5% FBS and 1% pen/strep. The mHypoE-41, mHypoE-38, and mHypoA-59 cell lines were cultured in DMEM containing 4500 mg/L glucose supplemented with 2% FBS and 1% pen/strep. The mHypoA-POMC/GFP-2 line was cultured in DMEM containing 1000 mg/L glucose supplemented with 2% FBS and 1% pen/strep. All cells were maintained in 5% CO2 at 37° C. BAP was initially dissolved in DMSO solvent (vehicle control) to achieve 1000x the intended dose. The BAP solution was then diluted 1:1000 with the growth media used for the cell line. For co-treatment experiments, the vehicle control for ATP, UDP, and PKI was water, and for the H89 PKA inhibitor was DMSO. Neuropeptide gene expression levels were determined by qRT-PCR.
(§2) For cell culture experiments, total RNA was isolated using PureLink RNA isolation kit (Thermofisher Scientific, Burlington, ON, Canada) according to the manufacturer's instruction with on column DNase step (PureLink DNAse kit) or DNase I treatment to remove genomic DNA. For mouse experiments, total RNA was isolated using mirVana PARIS RNA and native protein isolation kit (Thermofisher Scientific). RNA quality and quantity were measured using Nanodrop 2000 and 500-1000 ng of complimentary DNA (cDNA) was synthesized with High Capacity cDNA Reverse Transcription kit (Applied biosystems, Thermofisher Scientific). Quantitative reverse transcription polymerase chain reaction (RT-qPCR) was performed with 12.5 ng of cDNA amplified with Platinum SYBR green qPCR SuperMix-UDG with ROX on an Applied Biosystems Prism 7900HT or PowerTrack Green Master Mix on an Applied Biosystems QuantStudio 5 and gene specific primers as per manufacturer's instructions (Table 1). Data was analyzed using […] and normalized to reference gene, either 60S ribosomal protein L7 (Rpl7) or Histone 3a (His).

mHypoE-44 cell line = test: Gene expression by qRT-PCR in mHypoE-44 hypothalamic cell line; settings: 16 hr
Description: as §1, §2

mHypoE-41 cell line = test: Gene expression by qRT-PCR in mHypoE-41 hypothalamic cell line; settings: 100 μM ATP, 16 hr
Description: as §1, §2

mHypoA-59 cell line = test: Gene expression by qRT-PCR in mHypoA-59 hypothalamic cell line; settings: ATP (data not shown)
Description: as §1, §2

NC(=O)c1ncn([C@@H]2O[C@H](COP(=O)(O)O)[C@@H](O)[C@H]2O)c1N [AICAR, 5-Aminoimidazole-4-carboxamide ribonucleotide, reference compound]
AMPK phosphorylation (activation) vs vehicle (AMPK): significantly activate AMPK

c1coc(CNc2ncnc3[nH]cnc23)c1 [kinetin]
repression of Npy transcripts (mHypoE-46 cell line; 100 μM kinetin, 16 h, n=2 preliminary): ~50%

O=c1ccn([C@@H]2O[C@H](COP(=O)(O)OP(=O)(O)OP(=O)(O)O)[C@@H](O)[C@H]2O)c(=O)[nH]1 [UTP, reference compound]
Npy expression (mHypoE-46 cell line; 100 μM UTP, n=2 preliminary): no effect | basal Npy expression (mHypoE-44 cell line; 100 μM UTP, n=2 preliminary): may decrease the basal expression of Npy

O=c1ccn([C@@H]2O[C@H](COP(=O)(O)OP(=O)(O)O)[C@@H](O)[C@H]2O)c(=O)[nH]1 [UDP, reference compound]
Npy expression (mHypoE-46 cell line; 100 μM UDP): no effect | Npy expression (mHypoE-44 cell line; 100 μM UDP): unable to affect the expression of Npy

Nc1ncnc2c1ncn2[C@@H]1O[C@H](COP(=O)(O)OP(=O)(O)OP(=O)(O)O)[C@@H](O)[C@H]1O [ATP, reference compound]
Npy expression (mHypoE-41 cell line): induces the expression of Npy | Npy expression (mHypoE-46 cell line; 100 μM ATP): induces the expression of Npy | Agrp expression (mHypoA-59 cell line): increased | Npy expression (mHypoA-59 cell line): increased | Npy expression (mHypoE-44 cell line; 100 μM ATP): induces the expression of Npy

— US20260034135A1, “USE OF N6-BENZYLAMINOPURINE AS AN APPETITE SUPPRESSANT” (THE GOVERNING COUNCIL OF THE UNIVERSITY OF TORONTO, priority 2022, published 2026)
